The subject of data set [1] is HCl-ethanol-induced ulcer at the mucosa of the stomach. The experiment in a line: Antiulcer activity (HCl-ethanol ulcer). Type of data set: in vivo, rats. The conditions noted are these: rat, one hour before HCl-ethanol; for inhibition in vivo at 5 mg/kg: 5 mg/kg oral; for inhibition in vivo at 2.5 mg/kg: 2.5 mg/kg oral; for inhibition in vivo at 1 mg/kg: 1 mg/kg oral. As for the experimental part:
1.5 ml of aqueous 60% ethanol solution containing 150 mM hydrochloric acid was orally administered to rats. One hour thereafter the rats were sacrificed and the length (mm) of HCl-ethanol-induced ulcer which was generated at the mucosa of the stomach was measured. Sum of the length of ulcer per animal is defined as ulcer coefficient. Specimens were each orally administered one hour before the HCl-ethanol administration. Inhibition rate was calculated by dividing the difference of ulcer coefficients of the control group and the specimen-administered group by the ulcer coefficient of the control group.

Another data set can be described thus: Acute toxicity (oral). The conditions noted are these: mouse, in vivo, male ICR-strain mice. The method, then:
Acute toxicity tests through oral administration were carried out using male ICR-strain mice (5 weeks old).

The subject of data set [2] is pylorus ligation ulcer at the proventriculus part. The experiment in a line: Antiulcer activity (pylorus ligation ulcer). The format is in vivo, rats. The following applies: rat, 100 mg/kg oral, 30 minutes before pylorus ligation; 13 hours. The method, then:
After rats weighing 210 to 230 g were made to fast for 24 hours, each pylorus part was ligated under ether anesthesia according to Shay et al. method [Castroenterogy, 5, 43 (1945)]. After leaving for 13 hours the animals were sacrificed, and each ulcer which had been generated at the proventriculus part was macroscopicly observed and evaluated according to the following 5 steps of ulcer index:
2; There are hyperemia or 5 or less of small ulcers
(diameter less than 3 mm).
3; There are 5 or more of small ulcers or one large
ulcer (diameter equal to or more than 3 mm).
4; There are 2 or more of large ulcers.
Compound (1) (specimen) as prepared according to the method in Reference example and spizofurone as a control specimen were orally administered 30 minutes before the pylorus ligation. Inhibition rate was calculated by dividing the difference of ulcer coefficients of the control group and the specimen-administered group by the ulcer coefficient of the control group.

The structures appear in SMILES notation.

Consider `Cc1ccc(/C=C/C2=CC(=O)OC2O)cc1` (centres unmarked) [(2)], for which, in data set [1] (1 h, read-out: Inhibition rate), the inhibition in vivo at 5 mg/kg was determined as 98.3%.
On to `CCc1ccc(/C=C/C2=CC(=O)OC2O)cc1` (centres unmarked) [(4)], for which the inhibition in vivo at 2.5 mg/kg in data set [1] (1 h, read-out: Inhibition rate) came out at 86.2%.
For `COc1ccc(/C=C/C2=CC(=O)OC2O)cc1` (centres unmarked) [(5)], the inhibition in vivo at 2.5 mg/kg in data set [1] (1 h, read-out: Inhibition rate) came out at 98.8%.
`COc1cccc(/C=C/C2=CC(=O)OC2O)c1OC` (centres unmarked) [(6)]: the inhibition in vivo at 1 mg/kg in data set [1] (1 h, read-out: Inhibition rate) came to 59.8%.
Consider `COc1ccc(OC)c(/C=C/C2=CC(=O)OC2O)c1` (centres unmarked) [(7)], for which, in data set [1] (1 h, read-out: Inhibition rate), the inhibition in vivo at 5 mg/kg is 98.6%.
With `O=C1C=C(/C=C/c2c(F)c(F)c(F)c(F)c2F)C(O)O1` (centres unmarked) [(8)], the inhibition in vivo at 1 mg/kg in data set [1] (1 h, read-out: Inhibition rate) is 67.4%.
`O=C1C=C(/C=C/c2ccc(F)cc2)C(O)O1` (centres unmarked) [(9)]: in data set [1] (1 h, read-out: Inhibition rate), the inhibition in vivo at 5 mg/kg came out at 100%.
On to `O=C1C=C(/C=C/c2ccc(Cl)cc2)C(O)O1` (centres unmarked) [(10)], for which the inhibition in vivo at 5 mg/kg in data set [1] (1 h, read-out: Inhibition rate) was 100%.
In the case of `O=C1C=C(/C=C/c2cccc(Cl)c2)C(O)O1` (centres unmarked) [(11)], in data set [1] (1 h, read-out: Inhibition rate), the inhibition in vivo at 2.5 mg/kg was found to be 91%.
With `O=C1C=C(/C=C/c2ccc(Cl)cc2Cl)C(O)O1` (centres unmarked) [(12)], in data set [1] (1 h, read-out: Inhibition rate), the inhibition in vivo at 5 mg/kg worked out at 54.1%.
Consider `O=C1C=C(/C=C/c2ccc([N+](=O)[O-])cc2)C(O)O1` (centres unmarked) [(13)], for which, in data set [1] (1 h, read-out: Inhibition rate), the inhibition in vivo at 2.5 mg/kg came to 34.1%.
As for `N#Cc1ccc(/C=C/C2=CC(=O)OC2O)cc1` (centres unmarked) [(15)], the inhibition in vivo at 5 mg/kg in data set [1] (1 h, read-out: Inhibition rate) was found to be 99.4%.
On to `O=C1C=C(/C=C/c2cccc(O)c2)C(O)O1` (centres unmarked) [(16)], for which, in data set [1] (1 h, read-out: Inhibition rate), the inhibition in vivo at 2.5 mg/kg was found to be 42.7%.
For the compound `O=C1C=C(/C=C/c2ccccc2)C(O)O1` (centres unmarked) [Compound (1), 5-hydroxy-4-[2-phenyl-(E)-ethenyl]-2(5H)-furanone], the LD50 (in general, the dose expected to kill half of the subjects tested) in the data set “Acute toxicity (oral)” was no less than 2000 mg/kg. Moreover, in data set [1] (1 h, read-out: Inhibition rate), the inhibition in vivo at 5 mg/kg worked out at 97.9%. Also, in data set [2], the Inhibition rate amounted to 80.3%.
As for `Cc1cc(C)c(/C=C/C2=CC(=O)OC2O)c(C)c1` (centres unmarked) [Compound (3)], the inhibition in vivo at 5 mg/kg in data set [1] (1 h, read-out: Inhibition rate) was 100%.
With `CC(=O)c1ccc2c(c1)C(=O)C1(CC1)O2` [Spizofurone, reference compound], the Inhibition rate in data set [1] (100 mg/kg oral) came out at 86.6%; in data set [2], 1.5%.
As to `CC(=O)CCC=C(C)CCC=C(C)CCC=C(C)CCC=C(C)C` [Teprenone, reference compound], the inhibition in vivo at 25 mg/kg in data set [1] (1 h, 25 mg/kg oral, read-out: Inhibition rate) turned out to be 48.9%.

The record behind these values is US4950818A, “Method for treating ulcer” (Kuraray Company, Ltd., priority 1988, dated 1990).
